From patent US9241962B2, “Water extract of Antrodia camphorata for immunostimulatory effect and preparation method thereof” (Kaohsiung Medical University, priority 2009, dated 2016)

Assays:
Format in all cases: cell-based, human
DCs [1] = experiment: Inhibition of MAPKs and PI3K/Akt activation before ACW stimulation of DCs; details: inhibitor 25 μM for 2 hours before ACW; for IL-12 production of DCs induced by ACW after inhibitor pretreatment: FIG. 13(B)
Method: To examine the signal transduction pathways involved in the effects of ACW on DC maturation, DCs were pretreated at 37° C. with ERK inhibitor PD98059 (25 μM), JNK inhibitor SP600125 (25 μM), p38 MAPK inhibitor SB203580 (25 μM) or PI3K/Akt inhibitor LY294002 (25 μM) for 2 hours before stimulation with ACW. After 2 days, phenotyping characteristics of DCs and IL-12 production in the supernatants of DCs were analyzed.

DCs [2] = experiment: Polymyxin B test of CD86 and HLA-DR expression on induced DCs; details: DCs treated with polymyxin B, then LPS or ACW; FIG. 7
Method: Polymyxin B is an antibiotic used for inactivating potential LPS contamination when evaluating the activity of different agents on immune cells. Therefore, whether polymyxin B blocks the phenotypic maturation of ACW-induced DCs is determined. […] Accordingly, ACW is able to stimulate the maturation of DCs without LPS contamination.

DCs [3] = experiment: IL-12 production in culture supernatants of stimulated DCs; design: unit not given here; details: LPS; PBS 235.53±2.54; FIG. 9
Method: The preparation method of DCs was mainly prepared and modified from Lin et al, 2006. First, peripheral blood mononuclear cells (PBMCs) were obtained from 12 healthy donors by centrifugation with the Ficoll-Hypaque (Amersham Bioscience, Uppsala, Sweden) density gradient centrifugation. PBMCs were cultured in RPMI 1640 medium supplemented with 10% fetal calf serum, 1 mM L-glutamin, 100 μg/ml streptomycin and 100 U/ml penicillin for 2 hours. The nonadherent cells were removed, and the T cells were purified by nylon wool separation, as the source of mononuclear T lymphocytes. T cells were loaded into the column and the eluted nonadherent cell fraction was rich in T cells. As determined by FACS, the resulting cell population was 80% T cells with a high expression of CD3. The adherent cells were cultured for 6 days in RPMI 1640 medium with 50 ng/ml of granulocyte-macrophage colony-stimulating factor (GM-CSF) and interleukin-4 (IL-4). […] ImDCs were further treated with phosphate buffered saline (PBS), LPS (100 ng/ml) and different doses of ACW for an additional 2 days and then assessed by flow cytometry.
Levels of IL-12, IL-10, IFN-γ and IL-4 in the culture supernatants from DCs or T cells were evaluated by using highly sensitive human cytokine assay kits (R&D Systems, Minneapolis, USA) according to the manufacturer's instructions.

Row | Compound | IL-12 production of DCs induced by ACW after inhibitor pretreatment (DCs [1]) | CD86 expression of the ACW-treated DCs after inhibitor pretreatment (DCs [1]; FIG. 13(A)) | expressions of CD86 and HLA-DR after polymyxin B treatment in advance (DCs [2]) | concentration of IL-12 produced by DCs (DCs [3])
1 | COc1cccc(-c2cc(=O)c3ccccc3o2)c1N [PD98059] | upregulates the IL-12 production | – | – | –
2 | C[S+]([O-])c1ccc(-c2nc(-c3ccncc3)c(-c3ccc(F)cc3)[nH]2)cc1 (centres unmarked) [SB203580] | significantly blocks the up-regulation of IL-12 production | inhibit CD86 expression | – | –
3 | lipopolysaccharide [LPS] | – | – | significantly inhibits the expressions of CD86 and HLA-DR | 698.45
